# Data: patent publication US20260207645A1, “USE OF INTEGRIN A5B1 AS TARGET IN SCREENING OF DRUGS FOR PREVENTING AND/OR TREATING BONE LOSS” (The Hong Kong Polytechnic University, priority 2023, published 2026)
# What was measured:
# BMSCs = experiment: F-actin cytoskeleton (phalloidin staining, confocal) in BMSCs under microgravity; assay type: cell-based; settings: microgravity 3 days
# Experimental: Testing procedure: BMSCs were cultured in osteogenic medium. […] The representative images were captured at mid-plane of the cells and visualized using a confocal laser scanning microscope (magnification: 400×, scale bar: 25 μm). Hoechst counter-staining (blue; DAPI) was applied for determination of single cells.
# differentiated BMSCs = experiment: quantitative analysis of differentiation activity (ALP, RhoA, Rac1) of BMSCs under normal gravity and microgravity; assay type: cell-based; settings: microgravity
# Experimental: Testing procedure: BMSCs were cultured in osteogenic medium. […] The representative images were captured at mid-plane of the cells and visualized using a confocal laser scanning microscope (magnification: 400×, scale bar: 25 μm). Hoechst counter-staining (blue; DAPI) was applied for determination of single cells. […] The quantitative analysis of the differentiation activity of BMSCs under normal gravity and microgravity is shown in FIG. 6, where FIG. 6a is the ALP activity analysis relative to the positive control group, FIG. 6b is the RhoA activity analysis in total protein, and FIG. 6c is the Rac1 activity analysis in total protein. The data in FIGS. 6a, 6b, and 6c are presented as mean values±SEM. Statistical analysis was performed using one-way […]<0.001; versus control: *p<0.05, ###p<0.001 (n=3).
# integrin α5β1 = biological target: T1, integrin α5β1 (Homo sapiens, UniProt P05556+P08648); experiment: competitive solid-phase binding ELISA (soluble integrin α5β1 vs coated fibronectin); settings: fibronectin-coated plate, soluble integrin α5β1 1.0 μg/ml; read-out: IC50 for competing with fibronectin bound on integrin α5β1
# T1 construct: Soluble integrin α5β1 (1.0 μg/ml) (R&D Systems, MN, USA); purchased R&D Systems
# [1] = growth factor, concentration not given
molecule,measurement,setting,value
COc1ccc(-c2oc3c(CC=C(C)C)c(O[C@@H]4O[C@H](CO)[C@@H](O)[C@H](O)[C@H]4O)cc(O)c3c(=O)c2O[C@@H]2O[C@@H](C)[C@H](O)[C@@H](O)[C@H]2O)cc1 [icariin],F-actin polymerization,BMSCs; 10 nM,stimulated F-actin polymerization
same,F-actin polymerization,BMSCs; 0.1 μM,stimulated F-actin polymerization
same,ALP activity,differentiated BMSCs; differentiated BMSCs,significantly increase
same,Rac1 activity,differentiated BMSCs; differentiated BMSCs,significantly increase
same,RhoA activity,differentiated BMSCs; differentiated BMSCs,significantly increase
same,differentiation of BMSCs,differentiated BMSCs; 10 nM,restore the differentiation
same,differentiation of BMSCs,differentiated BMSCs; 100 nM,restore the differentiation
"IGF-1: growth factor, positive control",F-actin polymerization,BMSCs; [1],stimulated F-actin polymerization
CC(C)=CCc1c(O)cc(O)c2c1O[C@H](c1ccc(O)cc1)CC2=O [8-prenylnaringenin],IC50,integrin α5β1,7.6 ± 3.92 nM
CC(C)=CCc1c(O)cc(O)c2c(=O)c(-c3ccc(O)cc3)coc12 [8-prenylgenistein],IC50,integrin α5β1,390 ± 280 nM
"C[C@]12CC[C@@H]3c4ccc(O)cc4CC[C@H]3[C@@H]1CC[C@@H]2O [E2, reference compound]",F-actin polymerization,BMSCs; [1],not
